Test results taken from PubChem BioAssay (NCI).
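Interpolation was linear, between the two tested concentrations surrounding the appropriate level; five concentrations were tested over 48 hours in 96-well plates. Abbreviation: GI50, concentration required for 50% inhibition of growth. TGI: total growth inhibition.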

Tests used:
Test in all cases: NCI tumour cell line growth inhibition, 48 h
[1] = tested on: BT-549 breast
[2] = tested on: COLO 205 colon
[3] = tested on: HCT-116 colon
[4] = tested on: LOX IMVI melanoma
[5] = tested on: M14 melanoma
[6] = tested on: MOLT-4 leukemia
[7] = tested on: NCI-H460 lung
[8] = tested on: PC-3 prostate
[9] = tested on: UACC-257 melanoma
[10] = tested on: HOP-92 NSCLC

Compound | GI50 [1] | TGI [1] | GI50 [2] | TGI [2] | GI50 [3] | TGI [3] | GI50 [4] | TGI [4] | GI50 [5] | TGI [5] | GI50 [6] | TGI [6] | GI50 [7] | TGI [7] | GI50 [8] | TGI [8] | GI50 [9] | TGI [9] | TGI [10] | GI50 [10]
Cn1nccc1Nc1nccc(-c2cc3c(s2)C(C)(C)N(CCN2CCOCC2)C3=O)n1 | 19 µM | 99.8 µM | 0.159 µM | > 100 µM | 0.594 µM | > 100 µM | 0.734 µM | > 100 µM | 0.312 µM | > 37.4 µM | 25.7 µM | > 100 µM | 21.4 µM | > 100 µM | 28.8 µM | > 100 µM | 0.301 µM | > 100 µM |  | 
CCOC12OC3=C(CC1CC1=C(CCC1=O)O2)C(=O)CC3 (stereo not drawn) |  |  |  | > 100 µM |  | > 100 µM |  | > 100 µM |  | > 100 µM |  | > 100 µM |  | > 100 µM |  |  |  | > 100 µM | > 100 µM | 
CC(=O)N1N=C2/C(=C/c3ccccc3)CC(C)CC2C1c1ccccc1 (stereo not drawn) | 15.6 µM | 33.1 µM | 16.5 µM | 45.6 µM |  |  | 13.9 µM | 29.9 µM |  |  | 8.72 µM | 28.1 µM | 13 µM | 27.8 µM | 10.7 µM | 40.2 µM | 16.5 µM | 32.6 µM | 31.2 µM | 13.9 µM
COC(=O)/C=C1/CCC2[C@@H](C(=O)CC3[C@]2(C)CCC[C@@]3(C)C(=O)OC)C1C (stereo partly drawn) |  |  |  | 18.1 µM |  | 19.1 µM |  |  |  | 29.1 µM |  | 19.1 µM |  | 51.7 µM |  |  |  | 24.7 µM | 18.1 µM | 
O=c1/c(=C/c2cccc([N+](=O)[O-])c2)sc2nc3ccccc3n12 |  |  |  |  |  | > 100 µM |  | > 100 µM |  | > 100 µM |  |  |  | > 100 µM |  |  |  | > 100 µM |  | 
Cc1ccc(NC(=O)C(=O)C2C(=O)N(c3ccccc3)N=C2N)cc1C (stereo not drawn) |  |  |  | > 100 µM |  | > 100 µM |  |  |  | > 100 µM |  | > 100 µM |  |  |  |  |  | > 100 µM | > 100 µM | 
CCOC(=O)C12CCCC1(O)N(NC(=O)c1ccccc1)C(C)=C2C(=O)OC (stereo not drawn) |  |  |  | > 100 µM |  | > 100 µM |  | > 100 µM |  | > 100 µM |  | > 100 µM |  | > 100 µM |  |  |  | > 100 µM | > 100 µM | 
COc1ccc2c(=O)c(C)c(-c3ccccc3)oc2c1CN(C)C |  |  |  | > 100 µM |  | > 100 µM |  | > 100 µM |  | > 100 µM |  | > 100 µM |  | > 100 µM |  |  |  | > 100 µM | > 100 µM | 
COc1ccc(C(=O)OCC2OC(n3cnc4c(=S)nc[nH]c43)C(OC(=O)c3ccc(OC)cc3)C2OC(=O)c2ccc(OC)cc2)cc1 (stereo not drawn) |  |  |  | > 100 µM |  | > 100 µM |  |  |  | > 100 µM |  | > 100 µM |  | > 100 µM |  |  |  | > 100 µM | > 100 µM | 
Cc1cc(O)cc2oc(=O)c3c(O)cc(O)cc3c12 |  |  |  | 66.7 µM |  | 37.6 µM |  | 48.1 µM |  | > 100 µM |  | 31.2 µM |  | 30.8 µM |  |  |  | > 100 µM | 76.3 µM | 
Oc1ccccc1-c1nn(CNc2cccc(Cl)c2)c(=S)o1 | 94.4 µM | > 100 µM | 53.8 µM | > 100 µM | 25.3 µM | > 100 µM |  |  | 35.8 µM | > 100 µM |  | > 100 µM | 20.6 µM | > 100 µM | 32.9 µM | > 100 µM | > 100 µM | > 100 µM | 31.7 µM | 1.86 µM
CC(C)(C)NC(C1=CC(C)(C)c2ccccc2C1=O)c1ccccc1 (stereo not drawn) | 1.61 µM | 4.92 µM | 1.35 µM | 2.63 µM | 1.35 µM | 2.64 µM | 1.42 µM | 2.73 µM | 1.52 µM | 2.85 µM | 1.48 µM | 4.6 µM | 1.93 µM | 4.58 µM | 1.63 µM | 3.42 µM | 1.42 µM | 2.94 µM |  | 
CCOC(=O)/C(O)=C(/c1n[nH]c(=O)c2ccccc12)[N+](=O)[O-] |  |  |  | > 100 µM |  | > 100 µM |  | > 100 µM |  | > 100 µM |  | > 100 µM |  | > 100 µM |  |  |  | > 100 µM | > 100 µM | 
Cc1[nH]c2ccccc2c1C1Cc2ccccc2N1C(=O)/C=C/C=C/c1ccccc1 (stereo not drawn) |  |  |  | > 100 µM |  | > 100 µM |  | > 100 µM |  | > 100 µM |  | > 100 µM |  | > 100 µM |  |  |  | > 100 µM | > 100 µM | 
CC(=O)[CH-]C(=O)c1ccccc1.CC(=O)[CH-]C(=O)c1ccccc1.CC[O-].CC[O-].[Zr+4] |  |  | > 100 µM | > 100 µM | > 100 µM | > 100 µM | > 100 µM | > 100 µM | > 100 µM | > 100 µM | > 100 µM | > 100 µM | > 100 µM | > 100 µM |  |  | > 100 µM | > 100 µM |  | 
CN(C)CCNC(=O)c1cc2ccccc2c2nc3ccccc3nc12 |  |  |  | > 100 µM |  | 1.87 µM |  | 1.88 µM |  |  |  | 0.487 µM |  |  |  |  |  | 3.09 µM |  | 
Cc1c(Cl)ccc2c1NC(=O)C2(O)C(C(=O)c1ccccc1)c1ccccc1 (stereo not drawn) |  |  |  | > 100 µM |  | > 100 µM |  | > 100 µM |  | > 100 µM |  | 76.7 µM |  | > 100 µM |  |  |  | 89 µM |  | 
Nc1nc(N)c(N=O)c(Nc2ccc(O)cc2)n1 |  | > 82.9 µM |  | > 100 µM |  | > 100 µM |  | > 100 µM |  |  |  | > 60.9 µM |  | > 100 µM |  | > 100 µM |  | > 100 µM | > 100 µM | 
O=S1c2ccccc2N=C(c2ccc3ccccc3c2)CC1C1=CC=CCC1 (stereo not drawn) |  |  |  | 37.9 µM |  |  |  | 30.8 µM |  | 35.6 µM |  | 40.5 µM |  | 54.5 µM |  |  |  | 34.8 µM |  | 
COc1cc(/C=C2/C(=O)N(C(=O)OC(C)C)C(Cc3cc(OC)c(OC)c(C)c3OC)C(=O)N2Cc2ccccc2)c(OC)c(C)c1OC (stereo not drawn) |  |  |  | > 100 µM |  | > 100 µM |  | > 100 µM |  | > 100 µM |  | 44.1 µM |  | > 100 µM |  |  |  | > 100 µM | > 100 µM | 
CCOC(C)C(/C=N/NC(N)=S)=NNC(N)=S (stereo not drawn) |  |  |  | > 100 µM |  |  |  | > 100 µM |  |  |  | > 100 µM |  | > 100 µM |  |  |  | > 100 µM | > 100 µM | 
[O-]c1c2c(nn1-c1ccccc1)c1ccccc1c[n+]2Cc1ccccc1 |  |  |  | > 100 µM |  | > 100 µM |  | > 100 µM |  | > 100 µM |  | > 100 µM |  | > 100 µM |  |  |  | > 100 µM | > 100 µM | 
O=S(=O)(/C=C/c1ccc(Cl)cc1Cl)Cc1ccccc1CS(=O)(=O)/C=C/c1ccc(Cl)cc1Cl |  |  |  | > 100 µM |  | > 100 µM |  | > 100 µM |  | > 100 µM |  | > 100 µM |  | > 100 µM |  |  |  | > 100 µM | > 100 µM | 
